Reference: EP1000062B1, “TRICYCLIC VASOPRESSIN AGONISTS” (Wyeth, priority 1997, dated 1999)

How the values were obtained:
Format in all cases: in vivo
Vasopressin V2 [1] = assay: Vasopressin V2 agonist effects of test compounds in normal conscious water-loaded rats; details: Sprague-Dawley (CD) rats, oral 1 mg/kg, urine collected for four hours; for Osmolality (% Increase): change in osmolality as percent of control; for Urine Volume (% decrease): vs. control
Vasopressin V2 [2] = assay: Vasopressin V2 agonist effects of test compounds in normal conscious homozygous Brattleboro rats with central diabetes insipidus; details: Brattleboro (BB) rats, oral 10 mg/kg, urine collected for six hours; for Osmolality (% Increase): change in osmolality as percent of control; for Urine Volume (% decrease): vs. control
Source text: Vasopressin V2 Agonist Effects of Test Compounds in Normal Conscious Homozygous Brattleboro Rats with Central Diabetes Insipidus
Male or female homozygous Brattleboro rats (Harlan Sprague Dawley, Inc., Indianapolis, IN) of 250-350 g body weight were supplied with standard rodent diet (Purina Rodent Lab. Chow 5001) and water ad libitum. On the day of test, rats were placed individually into metabolic cages equipped with devices to separate the feces from the urine and containers for collection of urine. Test compound or reference agent was given at an oral dose of 1 to 10 mg/kg in a volume of 10 ml /kg. The vehicle used was 20% dimethylsulfoxide (DMSO) in 2.5% preboiled corn starch. During the test, rats were provided with water ad libitum. Urine was collected for six hours after dosing of the test compound. At the end of six hours, urine volume was measured. Urinary osmolality was determined using a Fiske One-Ten Osmometer (Fiske Associates, Norwood, MA, 02062) or an Advanced CRYOMATIC Osmometer, Model 3C2 (Advanced Instruments, Norwood, MA). Determinations of Na^+, K^+ and Cl^- ion were carried out using ion specific electrodes in a Beckman SYNCHRON EL-ISE Electrolyte System analyzer. This animal model was mainly used for evaluation of potency and duration of action of the active compounds.

Vasopressin V2 [3] = assay: Vasopressin V2 agonist effects of test compounds in normal conscious water-loaded rats; details: Sprague-Dawley (CD) rats, oral 10 mg/kg, urine collected for four hours; for Osmolality (% Increase): change in osmolality as percent of control; for Urine Volume (% decrease): vs. control
Experimental: Vasopressin V2 Agonist Effects of Test Compounds in Normal Conscious Water-Loaded Rats:
On the day of test, rats were placed individually into metabolic cages equipped with devices to separate the feces from the urine and containers for collection of urine. Test compound or reference agent was given at an oral dose of 10 mg/kg in a volume of 10 ml /kg. […] Thirty minutes after dosing the test compound, rats were gavaged with water at 30 ml /kg into the stomach using a feeding needle. During the test, rats were not provided with water or food. Urine was collected for four hours after dosing of the test compound. At the end of four hours, urine volume was measured. […] Determinations of Na^+, K^+ and Cl^- ion were carried out using ion specific electrodes in a Beckman SYNCHRON EL-ISE Electrolyte System analyzer. […] In the screening test, two rats were used for each compound. If the difference in the urine volume of the two rats was greater than 50%, a third rat was used.

| Molecule | Osmolality (% Increase) (Vasopressin V2 [3]) [%] | Urine Volume (% decrease) (Vasopressin V2 [3]) [%] | also measured |
| --- | --- | --- | --- |
| Cc1ccn(-c2ccc(C(=O)N3Cc4cccn4Cc4ccccc43)c(C(F)(F)F)c2)n1 [Example 2, [4-(3-Methyl-pyrazol-1-yl)-2-trifluoromethyl-phenyl](5H,11H-pyrrolo[2,1-c]-[1,4]benzadiazepin-10-yl)-methanone] | – | – | Osmolality (% Increase) (Vasopressin V2 [1]): 306% (1 mg/kg); Urine Volume (% decrease) (Vasopressin V2 [1]): 80% (1 mg/kg) |
| Cc1ccn(-c2ncc(C(=O)N3Cc4cccn4Cc4ccccc43)c(C(F)(F)F)n2)n1 [Example 20, [2-(3-Methyl-pyrazol-1-yl)-4-trifluoromethyl-pyrimidin-5-yl]-(5H,11H-pyrrolo[2,1-c][1,4]benzodiazepin-10-yl)-methanone] | – | – | Osmolality (% Increase) (Vasopressin V2 [1]): 152% (1 mg/kg); Urine Volume (% decrease) (Vasopressin V2 [1]): 25% (1 mg/kg) |
| CC(=O)n1ccc(-c2ccc(C(=O)N3Cc4cccn4Cc4ccccc43)cc2)n1 [Example 30, 1-{3-[4-(5H,11H-Pyrrolo[2,1-c][1,4]benzodiazepine-10-carbonyl)-phenyl]-pyrazol-1-yl}-ethanone] | – | – | Osmolality (% Increase) (Vasopressin V2 [2]): 334%; Urine Volume (% decrease) (Vasopressin V2 [2]): 81% |
| O=C(c1ccc(-c2ccn(C(=O)c3cccs3)n2)cc1)N1Cc2cccn2Cc2ccccc21 [Example 34, (5H,11H-Pyrrolo[2,1-c][1,4]benzodiazepin-10-yl)-{4-[1-(thiophene-2-carbonyl)-1H-pyrazoly-3-yl]phenyl}-methanone] | – | – | Osmolality (% Increase) (Vasopressin V2 [2]): 407%; Urine Volume (% decrease) (Vasopressin V2 [2]): 76% |
| Cc1ccccc1C(=O)n1ccc(-c2ccc(C(=O)N3Cc4cccn4Cc4ccccc43)cc2)n1 [Example 36, {4-[1-(2-Methyl-benzoyl)-1H-pyrazol-3-yl]-phenyl}-(5H,11H-pyrrolo[2,1-c][1,4]benzodiazepin-10-yl)-methanone] | – | – | Osmolality (% Increase) (Vasopressin V2 [2]): 164%; Urine Volume (% decrease) (Vasopressin V2 [2]): 66% |
| O=C(c1ccc(-c2ccn(C(=O)c3ccc(Cl)cc3Cl)n2)cc1)N1Cc2cccn2Cc2ccccc21 [Example 38, {4-[1-(2,4-Dichloro-benzoyl)-1H-pyrazol-3-yl]-phenyl}-(5H,11H-pyrrolo[2,1-c][1,4]benzodiazepin-10-yl)-methanone] | – | – | Osmolality (% Increase) (Vasopressin V2 [2]): 256%; Urine Volume (% decrease) (Vasopressin V2 [2]): 66% |
| Cn1ncnc1-c1ccc(C(=O)N2Cc3cccn3Cc3ccccc32)cc1 [Example 49, [4-(2-Methyl-2H-[1,2,4]triazol-3-yl)-phenyl]-(5H,11H-pyrrolo[2,1-c][1,4]-benzodiazepin-10-yl)-methanone] | – | – | Osmolality (% Increase) (Vasopressin V2 [2]): 221%; Urine Volume (% decrease) (Vasopressin V2 [2]): 74% |
| COc1cc(-n2ccc(C)n2)ccc1C(=O)N1Cc2cccn2Cc2ccccc21 [Example 107, [2-Methoxy-4-(3-methyl-pyrazol-1-yl)-phenyl](5H,11H-pyrrolo[2,1-c][1,4]-benzodiazepin-10-yl) methanone] | 125 | 31 | – |
| COc1cc(-n2ccc(C)n2)ccc1C(=O)N1Cc2ccc(CN(C)C)n2Cc2ccccc21 [Example 108, (3-Dimethylaminomethyl-5H,11H-pyrrolo[2,1-c][1,4]benzodiazepin-10-yl)[2-methoxy-4-(3-methyl-pyrazol-1-yl)-phenyl]-methanone] | 145 | 30 | – |
| Cc1ccn(-c2ccc(C(=O)N3Cc4cccn4Cc4ccccc43)c(O)c2)n1 [Example 109] | 95 | 21 | – |
| Cn1cc(-c2ccc(C(=O)N3Cc4cccn4Cc4ccccc43)c(Cl)c2)cn1 [Example 115, [2-Chloro-4-(1-methyl-1H-pyrazol-4-yl)phenyl) (5H,11H-pyrrolo[2,1-c][1,4]-benzodiazepin-10-yl)-methanone] | 229 | 66 | – |
| Cc1ccn(-c2ccc(C(=O)N3Cc4ccnn4Cc4ccccc43)c(Cl)c2)n1 [Example 116, [2-Chloro-4-(3-methyl-pyrazol-1-yl)-phenyl]-(4H,10H-pyrazolo[5,1-c][1,4]-benzodiazepin-5-yl)-methanone] | 256 | 66 | – |
| Cc1ccn(-c2ccc(C(=O)N3Cc4nnnn4Cc4ccccc43)c(Cl)c2)n1 [Example 117] | 311 | 68 | – |
| Cn1ccc(-c2ccc(C(=O)N3Cc4ccnn4Cc4ccccc43)cc2)n1 [Example 120A, [4-(1-Methyl-1H-pyrazol-3-yl)phenyl](4H,10H-pyrazolo[5,1c][1,4]-benzodiazepin-5-yl) methanone] | 269 | 66 | – |
| Cn1nccc1-c1ccc(C(=O)N2Cc3ccnn3Cc3ccccc32)cc1 [Example 120B, [4-(2-Methyl-1H-pyrazol-3-yl)phenyl](4H,10H-pyrazolo[5,1c][1,4]-benzodiazepin-5-yl) methanone] | 272 | 67 | – |
| CC(=O)c1ccc(C(=O)N2Cc3cccn3Cc3ccccc32)c(Cl)c1 [Example 121, 1-[4-(5H,11H-pyrrolo[2,1-c][1,4]benzodiazepine-10-carbonyl)-3-chlorophenyl]-ethanone] | 155 | 22 | – |
| [2-Chloro-4-(3-methyl-4-ethynyl-phenyl) (5H,11H-pyrrolo[2,1-c][1,4]-benzodiazepin-10-yl)-methanone [Example 123] | 663 | 88 | – |
